The values that follow are results of earlier work, collected in publication PMC3156379 (Bioorganic & medicinal chemistry letters, 2011).

What is called Kd is the constant that tells how readily two partners part at equilibrium.

For series [1], the system named is MAG inhibition of neurite outgrowth. Conditions: in vitro cell culture model.
The target of another series is T1, MAG (Homo sapiens, UniProt P20916).
T1 sequence (P20916 20-626): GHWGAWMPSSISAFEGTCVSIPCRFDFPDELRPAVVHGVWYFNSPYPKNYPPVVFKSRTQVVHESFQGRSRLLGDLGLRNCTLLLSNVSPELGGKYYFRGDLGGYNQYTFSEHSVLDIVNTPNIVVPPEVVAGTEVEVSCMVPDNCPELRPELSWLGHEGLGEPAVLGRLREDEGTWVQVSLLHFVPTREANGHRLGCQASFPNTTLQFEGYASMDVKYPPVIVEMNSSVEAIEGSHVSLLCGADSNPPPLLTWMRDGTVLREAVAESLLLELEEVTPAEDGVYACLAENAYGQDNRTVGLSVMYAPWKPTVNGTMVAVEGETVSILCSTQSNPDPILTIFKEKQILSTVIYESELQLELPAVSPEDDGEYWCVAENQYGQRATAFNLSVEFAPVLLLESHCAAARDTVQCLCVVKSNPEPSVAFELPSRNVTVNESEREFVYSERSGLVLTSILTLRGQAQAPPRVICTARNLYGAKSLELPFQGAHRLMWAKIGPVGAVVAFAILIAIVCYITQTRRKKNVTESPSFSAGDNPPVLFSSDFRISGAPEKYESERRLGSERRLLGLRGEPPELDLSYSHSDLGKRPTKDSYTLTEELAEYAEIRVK
The note with it: read-out: Kd for MAG; structures β-linked to synthetic aglycons.

On to `COC(=O)[C@@H](NC(C)=O)[C@@H](C)O[C@H]1O[C@H](CO)[C@H](O)[C@H](O[C@@H]2O[C@H](CO)[C@H](O)[C@H](O[C@]3(C(=O)[O-])C[C@H](O)[C@@H](NC(C)=O)[C@H]([C@H](O)[C@H](O)CO)O3)[C@H]2O)[C@H]1NC(C)=O.[Na+]` [Compound 11a, sialyl-T-antigen], for which, in series [1], the “reversing MAG inhibition of neurite outgrowth” value is “exhibited activity for reversing MAG inhibition of neurite outgrowth”.

Consider `CC(=O)N[C@H]1[C@H](OCC[Si](C)(C)C)O[C@H](CO[C@]2(C(=O)O)C[C@H](O)[C@@H](NC(C)=O)[C@H]([C@H](O)[C@H](O)CO)O2)[C@H](O)[C@@H]1O[C@@H]1O[C@H](CO)[C@H](O)[C@H](O[C@]2(C(=O)O)C[C@H](O)[C@@H](NC(C)=O)[C@H]([C@H](O)[C@H](O)CO)O2)[C@H]1O` [Compound 1], for which, at MAG, the Kd is 820 µM.
